The test system of assay [1] is HLA-A2/DR1 mice. The experiment in a line: Melanin-based vaccine (plus CpG-28) subcutaneous immunization, CD8 T-cell response by IFNg-SFC count of re-stimulated splenocytes. As to conditions: for T-cell Immune response: mean +/− SEM (number of mice): peptide 10 μg/mouse with synthetic melanin (peptide/L-Dopa 1/4) and CpG-28 10 μg/mouse, subcutaneous, day 8, splenocytes re-stimulated with the corresponding MHC class I epitope; for immune response after immunization (in words): melanin-based vaccine, HLA-A2/DR1 mice. The class given is in vivo. The text has this:
For the purpose of selecting a relevant PTPRZ1 antigen to be used in human patients, several peptides containing various PTPRZ1 immune epitopes were screened. The immunogenicity of these various peptides were screened by vaccinations in HLA-A2/DR1 mice (also known as Surel1 model). HLA-A2/DR1 mice are transgenic mice mimicking the human's immune system. As a vaccine procedure for screening, a melanin-based vaccine was used, as described in WO2021165306.
Using a melanin-based vaccine in HLA-A2/DR1 mice, these epitopes were then screened using peptides (SEQ ID NO: 5 to SEQ ID NO: 8) containing the epitope and an additional cysteine at the NH2-terminal, as it was disclosed in WO2021165306 that this modification increases the efficacy of melanin-based vaccine.
For immunizations, L-Dopa (0.8 mg/ml) underwent an oxidative polymerization at pH 8.5 in aerobic conditions for 2 hours at 60° C. The reaction mixture was then filtered on a 10 kDa filter, and the retentate containing the synthetic melanin was resuspended in phosphate buffer. Peptides (10 μg/mouse) containing the epitopes (underlined) were then added (at the weight ratio peptide/L-Dopa=1/4) and the mixtures were used for subcutaneous immunizations in mice. Phosphorothioate oligonucleotide CpG-28 (5′-[…], SEQ ID NO: 16) was added to vaccine formulations (10 μg/mouse) just before the immunizations. Mice were sacrificed on day 8 and the CD8 T-cell response was performed as described in Carpentier; 2017. Briefly, splenocytes were re-stimulated in vitro with the corresponding MHC class I-epitope (non-conjugated to melanin) and the numbers of IFNg-SFCs (Spot forming cells) were measured and expressed as Mean+/−S.E.M.

Assay [2] relates to HLA-A2/DR1 mice. The experiment in a line: Peptide plus CpG-28 without melanin, subcutaneous immunization, CD8 T-cell response by IFNg-SFC count of re-stimulated splenocytes. As to conditions: for T-cell Immune response: mean +/− SEM (number of mice): peptide 10 μg/mouse with CpG-28 10 μg/mouse, no melanin, subcutaneous, day 8, splenocytes re-stimulated with the corresponding MHC class I epitope. The class given is in vivo. The procedure: In a different adjuvant formulation, SEQ ID NO: 4 and SEQ ID NO: 14 were studied in HLA-A2/DR1 mice.
The peptides (10 μg/mouse) were mixed with the TLR9 agonist CpG-28 (SEQ ID NO: 16) (10 μg/mouse) and the mixtures were used for subcutaneous immunizations in mice. Mice were sacrificed on day 8 and the CD8 T-cell response was performed as described in Carpentier; 2017. Briefly, splenocytes were re-stimulated in vitro with the corresponding MHC class I-epitope (non-conjugated to melanin) and the numbers of IFNg-SFCs (Spot forming cells) were measured and expressed as Mean+/−S.E.M.

For a further assay, the system named is patients. As to conditions: glioblastoma patients, Hilf et al (2019); cited from earlier work.
A further assay has as its system transgenic SURE mice. Description: Cross reactivity of T-cell responses after immunization with SEQ 14, splenocytes re-stimulated with SEQ 14 or native epitope SEQ 4. In kind it is in vivo. As to conditions: immunized with SEQ ID NO: 14, day 8, re-stimulation 18 hours, 5 μg/ml to 0.3 ng/ml, FIG. 1. The procedure:
FIG. 1: cross reactivity of T-cell responses obtained after immunizations with SEQ 14 in transgenic SURE mice. Mice were immunized against SEQ 14, as described in table 1, and sacrificed on day 8. The splenocytes (5.10^5 cells/well) were re-stimulated in vitro for 18 hours with either SEQ 14 or the native epitope SEQ 4 (both non-conjugated to melanin), at various concentrations (5 μg/ml to 0.3 ng/ml) and the numbers of IFNg-SFCs (Spot forming cells) were measured after a 18-hour incubation (representative experiments from 3 experiments)
Mice were thus immunized with SEQ ID NO: 14, and it was checked whether T-cell response triggered by SEQ ID NO: 14 was able to similarly recognize the mutated epitote SEQ ID NO: 15 and the native epitope SEQ ID NO: 4.

For “PK MIWEHNVEV (PKMIWEHNVEV) [SEQ ID NO: 12]”, the “T-cell Immune response: mean +/− SEM (number of mice)” value (“T-cell Immune response: mean +/− SEM” below) in the assay on HLA-A2/DR1 mice [1] is 61 +/− 30 (n = 7) IFNg-SFCs.

In the case of KIWEHNVEV [SEQ ID NO: 15], the “T-cell Immune response: mean +/− SEM” value with HLA-A2/DR1 mice [1] is recorded as 118 +/− 26 (n = 7) IFNg-SFCs.

Turning to CKVFAGIPTV [SEQ ID NO: 5], in the assay on HLA-A2/DR1 mice [1], the “immune response after immunization (in words)” value is given as “powerful immune response” and the “T-cell Immune response: mean +/− SEM” value is on record as 288 +/− 37 (n = 8) IFNg-SFCs.

With C MIWEHNVEV (CMIWEHNVEV) [SEQ ID NO: 8], the “immune response after immunization (in words)” value is given as “able to trigger an immune response” with HLA-A2/DR1 mice [1] and “weak” in the assay on HLA-A2/DR1 mice [1] (listed as SEQ 8). Besides, the “T-cell Immune response: mean +/− SEM” value in the assay with HLA-A2/DR1 mice [1] is 24 +/− 8 (n = 8) IFNg-SFCs.

As for “H MIWEHNVEV (HMIWEHNVEV) [SEQ ID NO: 11]”, in the assay with HLA-A2/DR1 mice [1], the “T-cell Immune response: mean +/− SEM” value was 60 +/− 25 (n = 7) IFNg-SFCs.

Turning to C AIIDGVESV (CAIIDGVESV) [SEQ ID NO: 7], the “T-cell Immune response: mean +/− SEM” value with HLA-A2/DR1 mice [1] is on record as 3 +/− 1 (n = 4) IFNg-SFCs.

Turning to “MIWEHNVEV [SEQ ID NO: 4, reference compound]”, the figures for the “T-cell Immune response: mean +/− SEM” value in the assay on HLA-A2/DR1 mice [2] and in the assay with HLA-A2/DR1 mice [1] were 11 +/− 4 (n = 7) IFNg-SFCs and 3 +/− 1 (n = 7) IFNg-SFCs, respectively. Moreover, in the assay on patients, the “reactive CD8+ T cells against the peptide after immunization of patients” value is given as “found in some patients”.

CVLDSHIHAYVNALLIPGPAGK [SEQ ID NO: 6]: the “T-cell Immune response: mean +/− SEM” value in the assay on HLA-A2/DR1 mice [1] is on record as 7 +/− 5 (n = 4) IFNg-SFCs.

Turning to “KP MIWEHNVEV (KPMIWEHNVEV) [SEQ ID NO: 13]”, the “T-cell Immune response: mean +/− SEM” value with HLA-A2/DR1 mice [1] is 80 +/− 34 (n = 7) IFNg-SFCs.

As to “P MIWEHNVEV (PMIWEHNVEV) [SEQ ID NO: 10]”, the “T-cell Immune response: mean +/− SEM” value in the assay with HLA-A2/DR1 mice [1] is recorded as 40 +/− 15 (n = 7) IFNg-SFCs.

As for “KK KIWEHNVEV (KKKIWEHNVEV) [SEQ ID NO: 14]”, the “T-cell Immune response: mean +/− SEM” value with HLA-A2/DR1 mice [2] was 25 +/− 13 (n = 7) IFNg-SFCs. In the assay on HLA-A2/DR1 mice [2] (peptide with CpG-28, no melanin, compared with SEQ ID NO: 4), the “CD8 immune response after immunization without melanin (in words)” value is “more potent”. Also, the “reactivity against the native epitope (SEQ ID NO: 4) of lymphocytes primed with the modified epitope, compared with reactivity against the modified epitope” value in the assay on transgenic SURE mice is on record as “even higher”. Besides, in the assay on HLA-A2/DR1 mice [1], the “immune response after immunization (in words)” value is reported as “strong CD8 immune response” and the “T-cell Immune response: mean +/− SEM” value was 287 +/− 26 (n = 8) IFNg-SFCs.

The values above are taken from patent publication US20260199444A1, “VACCINES AGAINST PROTEIN TYROSINE PHOSPHATASE RECEPTOR TYPE Z1 (PTPRZ1) -POSITIVE TUMORS” (ALTEVAX, priority 2022, published 2026).
